Patent US4963566A, “Benzimidazolyl-sulfinyl-tetrahydroquinolines” (Otsuka Pharmaceutical Co., Ltd., priority 1986, dated 1990)

Molecular target: T1, H^+ +K^+ ATPase (Sus scrofa, UniProt P19156)
T1 construct: prepared from porcine stomach; from tissue; host or cells: porcine stomach
Test: H+ +K+ ATPase inhibition (inorganic phosphoric acid release)
Type: biochemical
Settings: enzyme prepared from porcine stomach; 30 min with compound at room temperature, pH 6.1; then 30 min at 37° C., pH 7.4, 20 mM KCl
Experimental: H^+ +K^+ ATPase (adenosine triphosphatase) (amount of protein: 10 μg) prepared from porcine stomach was added to a Pipes-TRIS [i.e. 2-amino-2-(hydroxymethyl)-1,3-propanediol] buffer solution (pH 6.1) containing 2 mM of piperazine N,N'-bis(2-ethanesulfonic acid), and the mixture was let stand at room temperature. A test compound was dissolved in dimethyl formamide, and the mixture was added to said H^+ +K^+ ATPase buffer solution so that the final concentration should be 1% and let stand for reaction for 30 minutes at room temperature. Then a 75 mM Pipes-TRIS buffer (1 ml, pH 7.4) (containing 4 mM MgCl2, 4 mM Na2 ATP, and 20 mM KCl) and a 75 mM Pipes-TRIS buffer (1 ml, pH 7.4) (containing 4 mM MgCl2, and 4 mM Na2 ATP) were added to the solution individually to make two kinds of samples and these samples were presented for reaction for 30 minutes at 37° C. 40% Trichloroacetic acid (0.3 ml) was added to each sample to stop the reaction. The solution were subjected to centrifugal separation (3000 rpm) for 10 minutes, and the supernatant was taken off, then the formed inorganic phosphoric acid was measured by Fiske and Subbarow's method [J. Biol. Chem. vol. 66, 375 (1925)]. The value of deducting the amount of inorganic phosphoric acid taken from the Pipes-Tris buffer not containing 20 mM KCl from that taken from the Pipes-Tris buffer containing 20 mM KCl was calculated in terms of unit protein and unit hour to be defined as an activity index of enzyme. Inhibition level (%) in doses of administration was estimated by control values and activity indices of enzyme, and from the obtained inhibition level (%), IC50 (dose of administration of compounds to inhibit in 50%) was obtained.

T1 sequence (P19156 2-1034 limits assumed): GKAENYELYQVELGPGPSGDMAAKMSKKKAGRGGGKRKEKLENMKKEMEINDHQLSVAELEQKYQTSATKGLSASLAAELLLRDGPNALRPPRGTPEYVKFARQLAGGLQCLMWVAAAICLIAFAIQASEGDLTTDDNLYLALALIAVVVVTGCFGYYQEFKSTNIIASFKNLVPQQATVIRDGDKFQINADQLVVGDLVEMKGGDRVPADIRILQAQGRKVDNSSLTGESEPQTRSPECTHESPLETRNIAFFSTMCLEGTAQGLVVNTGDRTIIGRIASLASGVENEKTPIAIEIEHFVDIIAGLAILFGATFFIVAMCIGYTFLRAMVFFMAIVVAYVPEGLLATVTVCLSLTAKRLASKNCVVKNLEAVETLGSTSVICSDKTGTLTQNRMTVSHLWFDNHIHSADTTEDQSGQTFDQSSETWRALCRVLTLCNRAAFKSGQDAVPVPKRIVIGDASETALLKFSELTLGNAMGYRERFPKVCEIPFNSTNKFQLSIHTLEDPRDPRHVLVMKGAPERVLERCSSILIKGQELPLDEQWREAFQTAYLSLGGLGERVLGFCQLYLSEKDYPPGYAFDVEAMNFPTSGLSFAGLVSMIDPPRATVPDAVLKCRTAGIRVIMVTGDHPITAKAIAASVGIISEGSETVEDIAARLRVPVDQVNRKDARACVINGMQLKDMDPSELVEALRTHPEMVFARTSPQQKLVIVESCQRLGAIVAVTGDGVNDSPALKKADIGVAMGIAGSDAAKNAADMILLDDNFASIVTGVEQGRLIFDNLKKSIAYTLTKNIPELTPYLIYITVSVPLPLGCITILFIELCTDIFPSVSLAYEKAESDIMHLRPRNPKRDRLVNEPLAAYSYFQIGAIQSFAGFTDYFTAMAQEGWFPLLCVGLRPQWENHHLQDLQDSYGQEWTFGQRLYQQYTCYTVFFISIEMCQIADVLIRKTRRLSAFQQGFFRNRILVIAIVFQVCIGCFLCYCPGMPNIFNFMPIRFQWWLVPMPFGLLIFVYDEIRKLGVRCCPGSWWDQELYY
T1 sequence (P18434 whole entry partner): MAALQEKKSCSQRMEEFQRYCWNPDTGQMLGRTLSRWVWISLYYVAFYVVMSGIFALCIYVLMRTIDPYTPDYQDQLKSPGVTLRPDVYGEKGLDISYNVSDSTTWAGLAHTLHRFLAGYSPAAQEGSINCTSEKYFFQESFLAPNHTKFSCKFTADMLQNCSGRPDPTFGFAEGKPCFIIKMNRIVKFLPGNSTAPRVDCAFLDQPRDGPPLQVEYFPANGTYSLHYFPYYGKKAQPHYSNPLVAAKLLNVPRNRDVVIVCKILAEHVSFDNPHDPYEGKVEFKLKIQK

Row | SMILES | IC50
1 | CCN1CC(C(=O)N(C)C)Cc2cccc(C[S+]([O-])c3nc4ccccc4[nH]3)c21 (centres unmarked) [Test compound No. 55, 1-ethyl-8-(2-benzimidazolyl)sulfinylmethyl-3-dimethylcarbamoyl-1,2,3,4-tetrahydroquinoline 1/3-hydrate] | 5.1 µM
2 | CCN1CC(C(=O)O)Cc2cccc(C[S+]([O-])c3nc4ccccc4[nH]3)c21 (centres unmarked) [Test compound No. 56, 1-ethyl-8-(2-benzimidazolyl)sulfinylmethyl-3-carboxy-1,2,3,4-tetrahydroquinoline 1/2hydrate] | 1.9 µM
3 | CCN1CC(C(=O)N2CCCCC2)Cc2cccc(C[S+]([O-])c3nc4ccccc4[nH]3)c21 (centres unmarked) [Test compound No. 58, 1-ethyl-8-(2-benzimidazolyl)sulfinylmethyl-3-(1-piperizinyl)carbonyl-1,2,3,4-tetrahydroquinoline] | 5.9 µM
4 | CCN1CCC(N(C)C(C)=O)c2cccc(C[S+]([O-])c3nc4ccccc4[nH]3)c21 (centres unmarked) [Test compound No. 59, 1-ethyl-8-(2-benzimidazolyl)sulfinylmethyl-4-(N-methyl-N-acetyl)amino-1,2,3,4-tetrahydroquinoline] | 5.7 µM
5 | C=CCNC1CCN(CC)c2c(C[S+]([O-])c3nc4ccc(C)cc4[nH]3)cccc21 (centres unmarked) [Test compound No. 60, 1-ethyl-8-(5-methyl-2-benzimidazolyl)sulfinylmethylmethyl-4-allylamino-1,2,3,4-tetrahydroquinoline] | 3.3 µM
6 | C=CCN1CCC(OC)c2cccc(C[S+]([O-])c3nc4ccc(C)cc4[nH]3)c21 (centres unmarked) [Test compound No. 62, 1-allyl-8-(5-methyl-2-benzimidazolyl)sulfinylmethylmethyl-4-methoxy-1,2,3,4-tetrahydroquinoline] | 4 µM
7 | CCN1CCC(CO)c2cccc(C[S+]([O-])c3nc4cc(OC)c(F)cc4[nH]3)c21 (centres unmarked) [Test compound No. 63, 1-ethyl-8-(5-fluoro-6-methoxy-2-benzimidazolyl)sulfinylmethyl-4-hydroxymethyl-1,2,3,4-tetrahydroquinoline] | 4.5 µM
8 | CCN1CCC(N(C)C2CC2)c2cccc(C[S+]([O-])c3nc4cc(F)c(OC)cc4[nH]3)c21 (centres unmarked) [Test compound No. 64, 1-ethyl-8-(5-fluoro-6-methoxy-2-benzimidazolyl)sulfinylmethyl-4-(N-methyl-N-cyclopropyl)amino-1,2,3,4-tetrahydroquinoline] | 4 µM
9 | CCN1CCC(N(C=O)C2CC2)c2cccc(C[S+]([O-])c3nc4cc(F)c(OC)cc4[nH]3)c21 (centres unmarked) [Test compound No. 65, 1-ethyl-8-(5-fluoro-6-methoxy-2-benzimidazolyl)sulfinylmethyl-4-(N-formyl-N-cyclopropyl)amino-1,2,3,4-tetrahydroquinoline] | 2.8 µM
10 | CCN1CC(C)(C)C(OC)c2cccc(C[S+]([O-])c3nc4ccc(C)cc4[nH]3)c21 (centres unmarked) [Test compound No. 66, 1-ethyl-8-(5-methyl-2-benzimidazolyl)sulfinylmethyl-4-methoxy-3,3-dimethyl-1,2,3,4-tetrahydroquinoline] | 0.33 µM
11 | CCOC(N(C)C1CCN(CC)c2c(C[S+]([O-])c3nc4cc(F)c(OC)cc4[nH]3)cccc21)C(F)(F)F (centres unmarked) [Test compound No. 69, 1-ethyl-8-(5-fluoro-6-methoxy-2-benzimidazolyl)sulfinylmethyl-4-[N-methyl-N-(2,2,2-trifluoro-1ethoxyethyl)]amino-1,2,3,4-tetrahydroquinoline] | 4.9 µM
12 | C=CCN(Cc1ccc(OC)cc1)C1CCN(CC)c2c(C[S+]([O-])c3nc4cc(F)c(OC)cc4[nH]3)cccc21 (centres unmarked) [Test compound No. 70, 1-ethyl-8-(5-fluoro-6-methoxy-2-benzimidazolyl)sulfinylmethyl-4-[N-allyl-N-(4-methoxybenzyl)]amino1,2,3,4-tetrahydroquinoline] | 3.8 µM
13 | C=CCN(C)C1CCNc2c(C[S+]([O-])c3nc4cc(F)c(OC)cc4[nH]3)cccc21 (centres unmarked) [Test compound No. 71, 8-(5-fluoro-6-methoxy-2-benzimidazolyl)sulfinylmethyl-4-(N-allyl-N-methyl)amino-1,2,3,4-tetrahydroquinoline] | 5.7 µM
14 | CCN1CC=C(C(F)(F)F)c2cccc(C[S+]([O-])c3nc4ccccc4[nH]3)c21 (centres unmarked) [Test compound No. 72, 1-ethyl-8-(2-benzimidazolyl)sulfinylmethyl-4-trifluoromethyl-1,2-dihydroquinoline] | 3.3 µM
